Results from ChEMBL document CHEMBL3885881, “DrugMatrix”.

Species: Rattus norvegicus
Experiment: DrugMatrix - Regimen: Daily Repeat
Format: toxicity, organism-based, Sprague-Dawley
Parameters: regimen Daily Repeat, gender Male, age 6-8 weeks
Conditions: in vivo, po, 30 mg/kg, route oral GAVAGE, dose level Low, vehicle .5 % CMC; for ABSOLUTE BASOPHIL / ABSOLUTE EOSINOPHIL / ABSOLUTE LYMPHOCYTE / ABSOLUTE SEGMENTED NEUTROPHIL / BASOPHIL / EOSINOPHIL / ERYTHROCYTE COUNT / HEMATOCRIT / HEMOGLOBIN / LEUKOCYTE COUNT / LYMPHOCYTE / MEAN CORPUSCULAR HEMOGLOBIN / MEAN CORPUSCULAR HEMOGLOBIN CONCENTRATION / MEAN CORPUSCULAR VOLUME / MONOCYTE / NEUTROPHIL / NUCLEATED RED BLOOD CELLS / PLATELET COUNT: tissue Blood; for ALANINE AMINOTRANSFERASE / ASPARTATE AMINOTRANSFERASE / BLOOD UREA NITROGEN / CARBON DIOXIDE / CHLORIDE / CHOLESTEROL / CREATINE PHOSPHOKINASE / CREATININE / GLUCOSE / LACTATE DEHYDROGENASE / LIPASE / PHOSPHORUS / POTASSIUM / SODIUM / TOTAL BILIRUBIN / TOTAL PROTEIN / URIC ACID: tissue Plasma

With `NC(=O)N1c2ccccc2C=Cc2ccccc21` [CARBAMAZEPINE] as the compound, how does the “ABSOLUTE BASOPHIL” value (72 h, time 3 day) read?
Its value is 0 CELLS/uL.

And the “ABSOLUTE EOSINOPHIL” value (72 h, time 3 day)?
Its value is 182 CELLS/uL.

What about the “ABSOLUTE LYMPHOCYTE” value (72 h, time 3 day) of the same compound?
The value was 15035.33 CELLS/uL.

What about the “ABSOLUTE SEGMENTED NEUTROPHIL” value (72 h, time 3 day) of the same compound?
Its value is 1745.67 CELLS/uL.

And the BASOPHIL (72 h, time 3 day)?
The BASOPHIL was 0%.

And the EOSINOPHIL (72 h, time 3 day)?
Its EOSINOPHIL is 1%.

And the “ERYTHROCYTE COUNT” value (72 h, time 3 day)?
Its value is 5.25 x10E6/uL.

What about the HEMATOCRIT (72 h, time 3 day) of the same compound?
Its HEMATOCRIT is 33.47%.

And the HEMOGLOBIN (72 h, time 3 day)?
The HEMOGLOBIN was 12.6 G/DL.

What about the “LEUKOCYTE COUNT” value (72 h, time 3 day) of the same compound?
Its value is 17.3 x10E3/uL.

What about the LYMPHOCYTE (72 h, time 3 day) of the same compound?
The LYMPHOCYTE was 86.67%.

And the “MEAN CORPUSCULAR HEMOGLOBIN” value (72 h, time 3 day)?
The value was 24.03 pg.

And the “MEAN CORPUSCULAR HEMOGLOBIN CONCENTRATION” value (72 h, time 3 day)?
The value was 37.67 G/DL.

And the “MEAN CORPUSCULAR VOLUME” value (72 h, time 3 day)?
Its value is 63.8 fL.

What about the MONOCYTE (72 h, time 3 day) of the same compound?
Its MONOCYTE is 2%.

And the NEUTROPHIL (72 h, time 3 day)?
Its NEUTROPHIL is 10.33%.

And the “NUCLEATED RED BLOOD CELLS” value (72 h, time 3 day)?
The value was 0 /100WBC.

What about the “PLATELET COUNT” value (72 h, time 3 day) of the same compound?
Its value is 1486.67 x10E3/uL.

What about the “ALANINE AMINOTRANSFERASE” value (72 h, time 3 day) of the same compound?
Its value is 52 u/L.

And the “ASPARTATE AMINOTRANSFERASE” value (72 h, time 3 day)?
Its value is 78.33 u/L.

And the “BLOOD UREA NITROGEN” value (72 h, time 3 day)?
The value was 16.33 mg/dL.

And the “CARBON DIOXIDE” value (72 h, time 3 day)?
The value was 25.67 mmol/L.

What about the CHLORIDE (72 h, time 3 day) of the same compound?
The CHLORIDE was 101.67 MEQ/L.

What about the CHOLESTEROL (72 h, time 3 day) of the same compound?
The CHOLESTEROL was 69.67 mg/dL.

What about the “CREATINE PHOSPHOKINASE” value (72 h, time 3 day) of the same compound?
The value was 157.33 u/L.

What about the CREATININE (72 h, time 3 day) of the same compound?
The CREATININE was 0.2 mg/dL.

And the GLUCOSE (72 h, time 3 day)?
The GLUCOSE was 143.33 mg/dL.

What about the “LACTATE DEHYDROGENASE” value (72 h, time 3 day) of the same compound?
The value was 208 u/L.

And the LIPASE (72 h, time 3 day)?
The LIPASE was 9 u/L.

What about the PHOSPHORUS (72 h, time 3 day) of the same compound?
The PHOSPHORUS was 11.33 mg/dL.

And the POTASSIUM (72 h, time 3 day)?
Its POTASSIUM is 6.9 MEQ/L.

What about the SODIUM (72 h, time 3 day) of the same compound?
Its SODIUM is 145 MEQ/L.

And the “TOTAL BILIRUBIN” value (72 h, time 3 day)?
The value was 0.2 mg/dL.

And the “TOTAL PROTEIN” value (72 h, time 3 day)?
Its value is 5.53 G/DL.

What about the “URIC ACID” value (72 h, time 3 day) of the same compound?
Its value is 1.57 mg/dL.

What about the “ABSOLUTE BASOPHIL” value (120 h, time 5 day) of the same compound?
Its value is 0 CELLS/uL.

What about the “ABSOLUTE EOSINOPHIL” value (120 h, time 5 day) of the same compound?
Its value is 0 CELLS/uL.

And the “ABSOLUTE LYMPHOCYTE” value (120 h, time 5 day)?
The value was 16159 CELLS/uL.

And the “ABSOLUTE SEGMENTED NEUTROPHIL” value (120 h, time 5 day)?
The value was 1742.33 CELLS/uL.

What about the BASOPHIL (120 h, time 5 day) of the same compound?
The BASOPHIL was 0%.

And the EOSINOPHIL (120 h, time 5 day)?
Its EOSINOPHIL is 0%.

And the “ERYTHROCYTE COUNT” value (120 h, time 5 day)?
The value was 5.72 x10E6/uL.

And the HEMATOCRIT (120 h, time 5 day)?
The HEMATOCRIT was 35.57%.

And the HEMOGLOBIN (120 h, time 5 day)?
Its HEMOGLOBIN is 13.07 G/DL.

And the “LEUKOCYTE COUNT” value (120 h, time 5 day)?
Its value is 18.27 x10E3/uL.

And the LYMPHOCYTE (120 h, time 5 day)?
Its LYMPHOCYTE is 88.33%.

What about the “MEAN CORPUSCULAR HEMOGLOBIN” value (120 h, time 5 day) of the same compound?
The value was 22.87 pg.

What about the “MEAN CORPUSCULAR HEMOGLOBIN CONCENTRATION” value (120 h, time 5 day) of the same compound?
Its value is 36.73 G/DL.

And the “MEAN CORPUSCULAR VOLUME” value (120 h, time 5 day)?
The value was 62.2 fL.

What about the MONOCYTE (120 h, time 5 day) of the same compound?
The MONOCYTE was 2%.

And the NEUTROPHIL (120 h, time 5 day)?
Its NEUTROPHIL is 9.67%.

And the “NUCLEATED RED BLOOD CELLS” value (120 h, time 5 day)?
Its value is 0 /100WBC.

And the “PLATELET COUNT” value (120 h, time 5 day)?
Its value is 1400 x10E3/uL.

What about the “ALANINE AMINOTRANSFERASE” value (120 h, time 5 day) of the same compound?
Its value is 40 u/L.

And the “ASPARTATE AMINOTRANSFERASE” value (120 h, time 5 day)?
The value was 84 u/L.

And the “BLOOD UREA NITROGEN” value (120 h, time 5 day)?
Its value is 19.67 mg/dL.

What about the “CARBON DIOXIDE” value (120 h, time 5 day) of the same compound?
The value was 25.33 mmol/L.

And the CHLORIDE (120 h, time 5 day)?
The CHLORIDE was 106.67 MEQ/L.

And the CHOLESTEROL (120 h, time 5 day)?
Its CHOLESTEROL is 60 mg/dL.

What about the “CREATINE PHOSPHOKINASE” value (120 h, time 5 day) of the same compound?
The value was 371 u/L.

What about the CREATININE (120 h, time 5 day) of the same compound?
Its CREATININE is 0.18 mg/dL.

What about the GLUCOSE (120 h, time 5 day) of the same compound?
Its GLUCOSE is 138.67 mg/dL.

What about the “LACTATE DEHYDROGENASE” value (120 h, time 5 day) of the same compound?
Its value is 600.67 u/L.

What about the LIPASE (120 h, time 5 day) of the same compound?
Its LIPASE is 8.67 u/L.

What about the PHOSPHORUS (120 h, time 5 day) of the same compound?
Its PHOSPHORUS is 11.47 mg/dL.

And the POTASSIUM (120 h, time 5 day)?
Its POTASSIUM is 6.31 MEQ/L.

And the SODIUM (120 h, time 5 day)?
The SODIUM was 144.97 MEQ/L.

What about the “TOTAL BILIRUBIN” value (120 h, time 5 day) of the same compound?
The value was 0.17 mg/dL.

And the “TOTAL PROTEIN” value (120 h, time 5 day)?
Its value is 6.17 G/DL.

What about the “URIC ACID” value (120 h, time 5 day) of the same compound?
Its value is 1.2 mg/dL.
